“And” between values parts separate entries of the source, which are not always exact repeats. Identical values can stand only once. ± gives the expanded uncertainty stated by the source.
Test: molar heat capacity at constant pressure
Conditions: 101.33 kPa, Crystal 2, Small (less than 1 g) adiabatic calorimetry

O=S(=O)([O-])[O-].[Sr+2] [sulfuric acid, strontium salt (1:1)]
molar heat capacity at constant pressure (56.51 K): 30.49 ± 0.25 J/K/mol
molar heat capacity at constant pressure (58.44 K): 31.73 ± 0.26 J/K/mol
molar heat capacity at constant pressure (58.49 K): 31.79 ± 0.26 J/K/mol
molar heat capacity at constant pressure (60 K): 33.05 ± 0.27 J/K/mol
molar heat capacity at constant pressure (60.44 K): 33.28 ± 0.27 J/K/mol
molar heat capacity at constant pressure (60.48 K): 33.28 ± 0.27 J/K/mol
molar heat capacity at constant pressure (62.43 K): 34.65 ± 0.27 J/K/mol
molar heat capacity at constant pressure (62.46 K): 34.66 ± 0.27 J/K/mol
molar heat capacity at constant pressure (64.42 K): 35.97 ± 0.28 J/K/mol
molar heat capacity at constant pressure (64.44 K): 35.9 ± 0.28 J/K/mol
molar heat capacity at constant pressure (65 K): 36.36 ± 0.28 J/K/mol
molar heat capacity at constant pressure (66.35 K): 37.12 ± 0.29 J/K/mol and 37.15 ± 0.29 J/K/mol
molar heat capacity at constant pressure (68.19 K): 38.26 ± 0.29 J/K/mol
molar heat capacity at constant pressure (68.21 K): 38.27 ± 0.29 J/K/mol
molar heat capacity at constant pressure (69.98 K): 39.31 ± 0.3 J/K/mol
molar heat capacity at constant pressure (70 K): 39.32 ± 0.3 J/K/mol and 39.45 ± 0.3 J/K/mol
molar heat capacity at constant pressure (72.35 K): 40.74 ± 0.3 J/K/mol
molar heat capacity at constant pressure (72.39 K): 40.75 ± 0.3 J/K/mol
molar heat capacity at constant pressure (75 K): 42.32 ± 0.31 J/K/mol
molar heat capacity at constant pressure (75.34 K): 42.37 ± 0.31 J/K/mol
molar heat capacity at constant pressure (75.41 K): 42.41 ± 0.31 J/K/mol
molar heat capacity at constant pressure (78.33 K): 43.98 ± 0.32 J/K/mol
molar heat capacity at constant pressure (78.44 K): 44.04 ± 0.32 J/K/mol
molar heat capacity at constant pressure (79.87 K): 44.73 ± 0.32 J/K/mol
molar heat capacity at constant pressure (80 K): 44.96 ± 0.33 J/K/mol
molar heat capacity at constant pressure (81.29 K): 45.47 ± 0.33 J/K/mol
molar heat capacity at constant pressure (81.33 K): 45.52 ± 0.33 J/K/mol
molar heat capacity at constant pressure (81.48 K): 45.58 ± 0.33 J/K/mol
molar heat capacity at constant pressure (83.56 K): 46.57 ± 0.33 J/K/mol
molar heat capacity at constant pressure (84.99 K): 47.25 ± 0.34 J/K/mol
molar heat capacity at constant pressure (85 K): 47.4 ± 0.34 J/K/mol
molar heat capacity at constant pressure (85.53 K): 47.51 ± 0.34 J/K/mol
molar heat capacity at constant pressure (85.54 K): 47.52 ± 0.34 J/K/mol
molar heat capacity at constant pressure (86.61 K): 48.03 ± 0.34 J/K/mol
molar heat capacity at constant pressure (88.05 K): 48.76 ± 0.34 J/K/mol
molar heat capacity at constant pressure (89.26 K): 49.19 ± 0.35 J/K/mol
molar heat capacity at constant pressure (89.28 K): 49.23 ± 0.35 J/K/mol
molar heat capacity at constant pressure (89.67 K): 49.42 ± 0.35 J/K/mol
molar heat capacity at constant pressure (90 K): 49.69 ± 0.4 J/K/mol
molar heat capacity at constant pressure (92.33 K): 50.55 ± 0.4 J/K/mol
molar heat capacity at constant pressure (92.35 K): 50.59 ± 0.4 J/K/mol
molar heat capacity at constant pressure (92.74 K): 50.75 ± 0.4 J/K/mol
molar heat capacity at constant pressure (95 K): 51.83 ± 0.41 J/K/mol
molar heat capacity at constant pressure (95.41 K): 51.85 ± 0.41 J/K/mol
molar heat capacity at constant pressure (95.43 K): 51.89 ± 0.41 J/K/mol
molar heat capacity at constant pressure (95.81 K): 52.06 ± 0.41 J/K/mol
molar heat capacity at constant pressure (98.5 K): 53.08 ± 0.41 J/K/mol
molar heat capacity at constant pressure (98.51 K): 53.12 ± 0.41 J/K/mol
molar heat capacity at constant pressure (98.89 K): 53.27 ± 0.41 J/K/mol
molar heat capacity at constant pressure (100 K): 53.84 ± 0.42 J/K/mol
molar heat capacity at constant pressure (101.59 K): 54.27 ± 0.42 J/K/mol
molar heat capacity at constant pressure (101.61 K): 54.31 ± 0.42 J/K/mol
molar heat capacity at constant pressure (101.98 K): 54.46 ± 0.42 J/K/mol
molar heat capacity at constant pressure (104.69 K): 55.44 ± 0.42 J/K/mol
molar heat capacity at constant pressure (104.71 K): 55.47 ± 0.42 J/K/mol
molar heat capacity at constant pressure (105.08 K): 55.61 ± 0.42 J/K/mol
molar heat capacity at constant pressure (107.8 K): 56.58 ± 0.43 J/K/mol
molar heat capacity at constant pressure (107.82 K): 56.6 ± 0.43 J/K/mol
molar heat capacity at constant pressure (108.19 K): 56.76 ± 0.43 J/K/mol
molar heat capacity at constant pressure (110 K): 57.52 ± 0.43 J/K/mol
molar heat capacity at constant pressure (110.92 K): 57.67 ± 0.43 J/K/mol
molar heat capacity at constant pressure (110.94 K): 57.74 ± 0.43 J/K/mol
molar heat capacity at constant pressure (111.31 K): 57.81 ± 0.43 J/K/mol
molar heat capacity at constant pressure (114.04 K): 58.72 ± 0.44 J/K/mol
molar heat capacity at constant pressure (114.06 K): 58.77 ± 0.44 J/K/mol
molar heat capacity at constant pressure (114.43 K): 58.88 ± 0.44 J/K/mol
molar heat capacity at constant pressure (117.18 K): 59.76 ± 0.44 J/K/mol
molar heat capacity at constant pressure (117.2 K): 59.81 ± 0.44 J/K/mol
molar heat capacity at constant pressure (117.56 K): 59.97 ± 0.44 J/K/mol
molar heat capacity at constant pressure (120 K): 60.88 ± 0.44 J/K/mol
molar heat capacity at constant pressure (120.32 K): 60.79 ± 0.44 J/K/mol
molar heat capacity at constant pressure (120.33 K): 60.87 ± 0.44 J/K/mol
molar heat capacity at constant pressure (120.71 K): 60.96 ± 0.44 J/K/mol
molar heat capacity at constant pressure (123.46 K): 61.8 ± 0.45 J/K/mol
molar heat capacity at constant pressure (123.49 K): 61.84 ± 0.45 J/K/mol
molar heat capacity at constant pressure (123.85 K): 61.96 ± 0.45 J/K/mol
molar heat capacity at constant pressure (126.62 K): 62.8 ± 0.45 J/K/mol
molar heat capacity at constant pressure (126.64 K): 62.83 ± 0.45 J/K/mol
molar heat capacity at constant pressure (127.01 K): 62.93 ± 0.45 J/K/mol
molar heat capacity at constant pressure (129.77 K): 63.78 ± 0.46 J/K/mol
molar heat capacity at constant pressure (129.8 K): 63.86 ± 0.46 J/K/mol
molar heat capacity at constant pressure (130 K): 64.04 ± 0.46 J/K/mol
molar heat capacity at constant pressure (130.19 K): 63.91 ± 0.46 J/K/mol
molar heat capacity at constant pressure (132.94 K): 64.72 ± 0.46 J/K/mol
molar heat capacity at constant pressure (132.97 K): 64.77 ± 0.46 J/K/mol
molar heat capacity at constant pressure (133.35 K): 64.93 ± 0.46 J/K/mol
molar heat capacity at constant pressure (136.13 K): 65.69 ± 0.46 J/K/mol
molar heat capacity at constant pressure (136.16 K): 65.79 ± 0.46 J/K/mol
molar heat capacity at constant pressure (136.53 K): 65.82 ± 0.46 J/K/mol
molar heat capacity at constant pressure (139.32 K): 66.68 ± 0.47 J/K/mol
molar heat capacity at constant pressure (139.35 K): 66.65 ± 0.47 J/K/mol
molar heat capacity at constant pressure (139.72 K): 66.8 ± 0.47 J/K/mol
molar heat capacity at constant pressure (140 K): 67.03 ± 0.47 J/K/mol
molar heat capacity at constant pressure (142.51 K): 67.53 ± 0.47 J/K/mol
molar heat capacity at constant pressure (142.54 K): 67.62 ± 0.47 J/K/mol
molar heat capacity at constant pressure (142.91 K): 67.65 ± 0.47 J/K/mol

Source: the NIST ThermoML archive (doi:10.1016/j.tca.2013.05.017)
